# Source: patent US7179627B2, “Cyclooxygenase variants and methods of use” (Brigham Young University, priority 2001, dated 2007)
# pIC50: −log10 of the molar value. Like-named read-outs stand apart in the source and are kept apart here.
# Experiments:
# [1] = active breakdown product of dipyrone; cited from earlier work
# COX-3 [2] = target: T1, COX-3 (Canis lupus familiaris, UniProt Q8HZR1, E597Q); assay: COX activity (PGE2 formation by RIA) in insect cells expressing COX-3, drug inhibition; format: cell-based, canine; details: for IC50: insect cells, PGE2 by RIA
# T1 construct: V5-His (vector name only); expressed in transfected cells; host or cells: Sf9 insect cells infected with recombinant baculovirus (pBlueBac 4.5/V5-His)
# T1 sequence (Q8HZR1 1-633 isoform Q8HZR1-2 E627Q): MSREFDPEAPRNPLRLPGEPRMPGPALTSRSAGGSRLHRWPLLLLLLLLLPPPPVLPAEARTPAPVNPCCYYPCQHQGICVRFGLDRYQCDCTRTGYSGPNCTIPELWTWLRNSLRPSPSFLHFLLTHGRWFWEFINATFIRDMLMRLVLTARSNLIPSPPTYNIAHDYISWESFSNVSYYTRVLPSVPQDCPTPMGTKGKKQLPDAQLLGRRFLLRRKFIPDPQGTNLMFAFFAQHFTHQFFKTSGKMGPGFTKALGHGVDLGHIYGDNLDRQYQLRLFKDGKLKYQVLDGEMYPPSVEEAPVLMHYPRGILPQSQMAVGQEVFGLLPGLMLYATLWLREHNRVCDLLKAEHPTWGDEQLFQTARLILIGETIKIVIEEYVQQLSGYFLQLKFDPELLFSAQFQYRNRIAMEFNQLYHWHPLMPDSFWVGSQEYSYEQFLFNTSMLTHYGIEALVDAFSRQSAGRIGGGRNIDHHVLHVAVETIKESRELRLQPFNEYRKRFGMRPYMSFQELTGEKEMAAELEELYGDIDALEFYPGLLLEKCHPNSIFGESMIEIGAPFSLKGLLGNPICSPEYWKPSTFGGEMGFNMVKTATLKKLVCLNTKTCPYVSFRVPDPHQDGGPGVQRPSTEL
# Procedure: (§1) Both COX-3 and PCOX-1a were cloned into the baculovirus expression vector pBlueBac 4.5/V5-His (Invitrogen). Sf9 cells (˜1×10^6) were infected with viral stocks at a multiplicity of infection (MOI) of 3 for expression of COX-3, PCOX-1a, mouse COX-1 and mouse COX-2.
# (§2) Sf9 cells were infected with a high titer viral stock at a MOI of3 and cultured for 48 hr. Infected cells expressing COX-3 were aliquoted into tubes (˜1.5×10^6 cells) and centrifuged (1000×g, 5 min). The supernatant was discarded and the cell pellet resuspended in 100 μl serum-free media containing the drug to be tested and preincubated at room temperature for 30 minutes. […] Samples were then centrifuged and 100 μl of the supernatant was assayed for COX activity by RIA for PGE2. Assays were performed multiple times in triplicate. Inhibition curves were constructed and IC50 values were determined using Prism® 3.0 (GraphPad, San Diego).
# mouse COX-2 = target: T2, mouse COX-2 (Mus musculus, UniProt Q05769); assay: COX activity (PGE2 formation by RIA) in insect cells expressing COX-2, drug inhibition; format: cell-based; details: for IC50: 30 μM arachidonic acid, insect cells, PGE2 by RIA, read-out: IC50, μM COX-2
# T2 construct: expressed in transfected cells; host or cells: Sf9 insect cells infected with recombinant baculovirus
# T2 sequence (Q05769 18-604): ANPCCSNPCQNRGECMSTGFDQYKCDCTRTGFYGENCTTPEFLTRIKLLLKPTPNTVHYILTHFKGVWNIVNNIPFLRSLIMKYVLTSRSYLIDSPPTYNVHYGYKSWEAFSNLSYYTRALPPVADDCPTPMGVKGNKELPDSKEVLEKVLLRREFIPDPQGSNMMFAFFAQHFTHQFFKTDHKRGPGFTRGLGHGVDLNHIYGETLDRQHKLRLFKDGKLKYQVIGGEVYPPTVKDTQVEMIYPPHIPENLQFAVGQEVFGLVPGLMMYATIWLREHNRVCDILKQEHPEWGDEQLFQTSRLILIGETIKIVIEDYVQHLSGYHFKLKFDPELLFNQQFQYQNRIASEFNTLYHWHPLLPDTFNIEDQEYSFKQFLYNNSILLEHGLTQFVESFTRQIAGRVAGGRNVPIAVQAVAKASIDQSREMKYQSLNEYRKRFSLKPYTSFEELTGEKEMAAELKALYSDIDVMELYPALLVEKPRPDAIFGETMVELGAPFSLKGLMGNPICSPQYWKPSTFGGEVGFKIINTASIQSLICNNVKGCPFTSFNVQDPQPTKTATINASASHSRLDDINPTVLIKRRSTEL
# Procedure: as §1, §2
# mouse COX-1 = target: T3, mouse COX-1 (Mus musculus, UniProt P22437); assay: COX activity (PGE2 formation by RIA) in insect cells expressing COX-1, drug inhibition; format: cell-based; details: for IC50: 30 μM arachidonic acid, insect cells, PGE2 by RIA, read-out: IC50, μM COX-1
# T3 construct: expressed in transfected cells; host or cells: Sf9 insect cells infected with recombinant baculovirus
# T3 sequence (P22437 27-602): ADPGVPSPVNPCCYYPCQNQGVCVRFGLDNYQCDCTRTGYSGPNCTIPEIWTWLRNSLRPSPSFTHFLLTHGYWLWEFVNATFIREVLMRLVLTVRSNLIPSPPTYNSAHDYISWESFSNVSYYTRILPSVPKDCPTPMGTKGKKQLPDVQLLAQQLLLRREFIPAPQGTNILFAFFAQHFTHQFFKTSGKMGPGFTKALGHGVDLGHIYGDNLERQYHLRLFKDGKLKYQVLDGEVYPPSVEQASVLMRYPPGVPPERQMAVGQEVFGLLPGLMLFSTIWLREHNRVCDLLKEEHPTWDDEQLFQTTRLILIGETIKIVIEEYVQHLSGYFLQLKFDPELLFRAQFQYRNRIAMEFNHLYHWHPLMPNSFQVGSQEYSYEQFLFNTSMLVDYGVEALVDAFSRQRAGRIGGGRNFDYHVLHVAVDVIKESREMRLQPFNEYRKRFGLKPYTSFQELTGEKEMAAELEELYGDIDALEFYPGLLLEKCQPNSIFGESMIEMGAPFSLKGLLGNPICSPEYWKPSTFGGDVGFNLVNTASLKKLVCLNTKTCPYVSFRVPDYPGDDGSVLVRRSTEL
# Procedure: as §1
# Sf9 cells were infected with a high titer viral stock at a MOI of3 and cultured for 48 hr. Infected cells expressing COX-3 were aliquoted into tubes (˜1.5×10^6 cells) and centrifuged (1000×g, 5 min). The supernatant was discarded and the cell pellet resuspended in 100 μl serum-free media containing the drug to be tested and preincubated at room temperature for 30 minutes. Arachidonic acid (100 μl, final concentration 5 or 30 μM) was then added, mixed and incubated (37° C., 10 min). Samples were then centrifuged and 100 μl of the supernatant was assayed for COX activity by RIA for PGE2. Assays were performed multiple times in triplicate. Inhibition curves were constructed and IC50 values were determined using Prism® 3.0 (GraphPad, San Diego).
# COX-3 [3] = assay: COX activity of intact tunicamycin-treated insect cells by RIA; format: cell-based, canine; details: 10 μg/ml, harvested after 48 hr
# Procedure: Tunicamycin was added to a final concentration of 10 μg/ml to insect cells 1 hr after infection with baculovirus constructs. The cells were cultured and harvested after 48 hr. COX activity of intact cells was determined by radioimmunoassay (RIA) (Salmon, 1978). COX activity in intact Tu-treated cells was compared with activity in untreated cells infected with the appropriate virus (MOI=3).
# [4] = substrate conditions of 30 μM arachidonic acid, read-out: IC50 value for COX-3
# [5] = 30 μM arachidonic acid, read-out: IC50, μM COX-3
compound,measurement,setting,value
CNc1c(C)n(C)n(-c2ccccc2)c1=O [4-methylaminoantipyrine],concentration reached in plasma,[1],104 µM
same,concentration reached in the central nervous system,[1],86 µM
"Cc1c(N(C)C)c(=O)n(-c2ccccc2)n1C [Aminopyrine, 4-dimethylaminoantipyrine]",pIC50,COX-3 [2]; [4],3.16
same,IC50,mouse COX-2,> 1000 µM
same,IC50,mouse COX-1,> 1000 µM
Cc1cc(=O)n(-c2ccccc2)n1C [Antipyrine],IC50,"COX-3 [2]; IC50, μM COX-3, 30 mM arachidonic acid",863 µM
same,pIC50,"COX-3 [2]; IC50 value for COX-3, substrate conditions of 30 μM arachidonic acid",3.06
same,pIC50,mouse COX-2,< 3.00
same,pIC50,mouse COX-1,< 3.00
CC(=O)Oc1ccccc1C(=O)O [Aspirin],IC50,COX-3 [2]; [5],3.1 µM
Cn1c(=O)c2c(ncn2C)n(C)c1=O [Caffeine],IC50,COX-3 [2]; [5],> 1000 µM
same,IC50,mouse COX-2,> 1000 µM
same,IC50,mouse COX-1,> 1000 µM
O=C(O)Cc1ccccc1Nc1c(Cl)cccc1Cl [Diclofenac],pIC50,mouse COX-1,7.46
Cc1c(N(C)CS(=O)(=O)[O-])c(=O)n(-c2ccccc2)n1C.[Na+] [Dipyrone],pIC50,COX-3 [2]; [4],4.28
same,IC50,mouse COX-2,> 1000 µM
same,inhibition of COX-2,mouse COX-2; below 1 mM,No detectable inhibition
same,"concentration inhibiting COX-1, fold higher than COX-3 IC50","mouse COX-1; 30 μM arachidonic acid (FIG. 13, panel D)",6.6 fold
same,IC50,mouse COX-1,350 µM
CCOc1ccc(NC(C)=O)cc1 [Phenacetin],pIC50,COX-3 [2]; [4],3.99
same,IC50,mouse COX-2,> 1000 µM
same,IC50,mouse COX-1,> 1000 µM
O=C1CCC(N2C(=O)c3ccccc3C2=O)C(=O)N1 (stereo not drawn) [Thalidomide],IC50,COX-3 [2]; [5],> 1000 µM
same,IC50,mouse COX-2,> 1000 µM
same,IC50,mouse COX-1,> 1000 µM
O=C([O-])c1ccccc1O.[Na+] [sodium salicylate],sensitivity of COX-3 to the drug compared with COX-1 or COX-2,COX-3 [2],less sensitive
tunicamycin,COX activity in cells treated with tunicamycin,COX-3 [3],significantly decreased or abolished
